Consider one compound from US11471391B2, “Cosmetic composition for inhibiting sebum hypersecretion” (NeoPharm Co., Ltd., priority 2019, dated 2022).

Common to all, as to format: cell-based
The test system of assay [1] is PPAR-γ. Kind of assay: Effect of inhibiting expression of PPAR-γ by Western blot in IGF-1-treated human sebocytes. As to conditions: human sebocytes pretreated with IGF-1 (50 ng/ml), sample 20 μM, 24 hours, FIG. 1. The method, then: 1. Effect of Inhibiting Expression of PPAR-γ by Western Blot
In the present invention, 1.5×10^5 (1 mL/well) of human sebocytes were adhered on a 12-well plate containing a Dulbecco's modified eagle medium (DMEM)/F12 (1:1) containing 10% fetal bovine serum (FBS). After culturing for 24 hours, cells were collected after 24 hours from each sample of a control group (1 μM) in which the medium was replaced with a serum-free medium and previously treated with IGF-1 (50 ng/ml) and an experimental group in which the control group was treated with Compound 1 of Example 1 (20 μM). In addition, in the present invention, the control means a sample which was not treated with IGF-1, and the comparative group means a sample in which the control group was treated with retinoic acid (20 μM). Thereafter, expression of PPAR-γ protein which is a representative lipid synthetic transcription factor of sebocytes was analyzed by the Western blot, for each of these samples.
(In general: In western blotting, separated proteins are transferred to a membrane and probed.)

For assay [2], the system named is human sebocytes. The assay can be described thus: Effect of inhibiting sebum secretion, oil red O staining of IGF-1-treated human sebocytes. The method, then:
2. Effect of Inhibiting Sebum Secretion
(§1) 1×10^5 (1 mL/well) of human sebocytes were adhered on a 12-well plate containing a Dulbecco's modified eagle medium (DMEM)/F12 (1:1) containing 10% fetal bovine serum (FBS).
In FIG. 2, each sample of a control group (1 μM) which was previously treated with IGF-1 (50 ng/ml) after culturing for 24 hours and an experimental group in which the control group was treated with Compound 1 of Example 1 (20 μM) was stained after 24 hours with a 0.5% oil red O solution for 1 hour and treated with 100% isopropanol, and an absorbance was measured by a 500 nm ELISA reader.

The subject of assay [3] is human sebocytes. Kind of assay: Nile red staining of human sebocytes, microscopic image. To be noted: Nile red 1 ug/ml for 30 minutes, FIG. 3. The protocol:
as §1

`CCCCCCCC(=O)C(CCCCCC)C(=O)N[C@@H](C)C(=O)OC` (stereo partly shown) [Compound 1, methyl (2-hexyl-3-oxodecanoyl)alaninate]: the “inhibition of PPAR-γ activation/expression (Western blot)” value in assay [1] is reported as “effect of inhibiting PPAR-γ activity is remarkable”. For the same compound, the “sebum production amount (fat content in sebocytes, oil red O, absorbance 500 nm)” value in assay [2] (human sebocytes pretreated with IGF-1 (50 ng/ml), 20 μM, 24 hours, FIG. 2) was “remarkably decreased”. For the same compound, the “dependence of the sebum production decrease on treatment concentration” value in assay [2] (human sebocytes pretreated with IGF-1, oil red O, each concentration) is reported as “significantly increased depending on the treatment concentration”. The “differentiation of fat cells (Nile red staining, microscopic image)” value in assay [3] is listed as “differentiation of fat cells is more effectively derived”.
